Measured values from ChEMBL document CHEMBL1201862, “PubChem BioAssay data set” (2004).
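A five-concentration, 48-hour dose response in 96-well plates underlies each endpoint, interpolated linearly between surrounding concentrations. GI50: concentration for 50% inhibition of growth.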 Active and inactive are the calls of the source. Cut-off read from the data, not from the text of the source: active = GI50 up to about 1.1 µM and inactive = higher.

Assays:
Test in all cases: NCI tumour cell line growth inhibition, 48 h
[1] = tested on: LOX IMVI
[2] = tested on: A549
[3] = tested on: HCT-15
[4] = tested on: MDA-N
[5] = tested on: UACC-257
[6] = tested on: Hs-578T
[7] = tested on: HOP-62
[8] = tested on: A498
[9] = tested on: NCI-H23
[10] = tested on: PC-3
[11] = tested on: MDA-MB-435
[12] = tested on: 786-0
[13] = tested on: HL-60
[14] = tested on: SK-MEL-28
[15] = tested on: HCC 2998
[16] = tested on: OVCAR-4
[17] = tested on: NCI/ADR-RES
[18] = tested on: COLO 205
[19] = tested on: NCI-H522
[20] = tested on: HT-29
[21] = tested on: SK-OV-3
[22] = tested on: SNB-19
[23] = tested on: HOP-92
[24] = tested on: SK-MEL-2
[25] = tested on: MDA-MB-231
[26] = tested on: OVCAR-8
[27] = tested on: M14
[28] = tested on: RPMI-8226
[29] = tested on: SF-539
[30] = tested on: NCI-H460
[31] = tested on: U-251
[32] = tested on: SF-295
[33] = tested on: RXF 393
[34] = tested on: ACHN
[35] = tested on: SF-268
[36] = tested on: SK-MEL-5
[37] = tested on: EKVX
[38] = tested on: UO-31
[39] = tested on: HCT-116
[40] = tested on: BT-549
[41] = tested on: SN12C
[42] = tested on: MOLT-4
[43] = tested on: T47D
[44] = tested on: SNB-75
[45] = tested on: OVCAR-3
[46] = tested on: SW-620
[47] = tested on: TK-10
[48] = tested on: CAKI-1
[49] = tested on: DU-145
[50] = tested on: CCRF-CEM
[51] = tested on: K562
[52] = tested on: IGROV-1
[53] = tested on: NCI-H226
[54] = tested on: KM12
[55] = tested on: MCF7
[56] = tested on: UACC-62
[57] = tested on: OVCAR-5
[58] = tested on: Malme-3M

With `O=C1NC(c2ccccc2)N=C2Oc3ccccc3C=C12` (stereo not given) the GI50 [1] was 5.12 µM (inactive), the GI50 [2] was 1.73 µM (inactive) and the GI50 [3] was 0.153 µM. The GI50 [4] was 0.0738 µM (active), the GI50 [5] was 0.065 µM (active) and the GI50 [6] was 0.521 µM (active). The GI50 [7] was 0.543 µM (active), the GI50 [8] was 1.27 µM (inactive) and the GI50 [9] was 0.151 µM (active). For the same compound, the GI50 [10] was 0.0753 µM (active), the GI50 [11] was < 0.0265 µM (active) and the GI50 [12] was 0.281 µM (active). The GI50 [13] was 0.212 µM (active), the GI50 [14] was 38.7 µM (inactive) and the GI50 [15] was 0.0277 µM (active). The GI50 [16] was > 100 µM (inactive), the GI50 [17] was 0.533 µM (active) and the GI50 [18] was 0.0731 µM (active). The GI50 [19] was 0.622 µM (active), the GI50 [20] was 1.68 µM (inactive) and the GI50 [21] was 0.0424 µM (active). The GI50 [22] was 4.61 µM (inactive), the GI50 [23] was 47.2 µM (inactive) and the GI50 [24] was 1.26 µM (inactive). For the same compound, the GI50 [25] was 0.569 µM (active), the GI50 [26] was 3.47 µM (inactive) and the GI50 [27] was 0.194 µM (active). The GI50 [28] was 19.3 µM (inactive), the GI50 [29] was 2.6 µM (inactive) and the GI50 [30] was 0.565 µM (active). For the same compound, the GI50 [31] was 4.21 µM (inactive), the GI50 [32] was 0.444 µM (active) and the GI50 [33] was 0.603 µM (active). For the same compound, the GI50 [34] was 2.87 µM (inactive), the GI50 [35] was 5.98 µM (inactive) and the GI50 [36] was 0.185 µM (active). For the same compound, the GI50 [37] was 0.181 µM (active), the GI50 [38] was 8.22 µM (inactive) and the GI50 [39] was 0.263 µM (active). For the same compound, the GI50 [40] was 32.6 µM (inactive), the GI50 [41] was 3.27 µM (inactive) and the GI50 [42] was 1.69 µM (inactive). For the same compound, the GI50 [43] was > 100 µM (inactive), the GI50 [44] was 0.547 µM (active) and the GI50 [45] was 0.0897 µM (active). The GI50 [46] was 0.621 µM (active), the GI50 [47] was > 63.1 µM (inactive) and the GI50 [48] was 0.0255 µM (active). The GI50 [49] was 0.231 µM (active), the GI50 [50] was 0.562 µM (active) and the GI50 [51] was 1.28 µM (inactive). The GI50 [52] was 0.535 µM (active), the GI50 [53] was 0.579 µM (active) and the GI50 [54] was 2.62 µM (inactive). For the same compound, the GI50 [55] was 0.359 µM (active), the GI50 [56] was 0.127 µM (active) and the GI50 [57] was 1.04 µM (active). The GI50 [58] was 0.122 µM (active).
With `O=C1N/C(=N/N=C/C(O)C(O)C(O)C(O)CO)N/C1=C\c1c[nH]c2ccccc12` (stereo not given) the GI50 [1] was > 100 µM (inactive), the GI50 [2] was > 100 µM (inactive) and the GI50 [3] was > 100 µM. For the same compound, the GI50 [4] was > 100 µM (inactive), the GI50 [5] was > 100 µM (inactive) and the GI50 [6] was > 100 µM (inactive). The GI50 [7] was > 100 µM (inactive), the GI50 [8] was 38.3 µM (inactive) and the GI50 [9] was > 100 µM (inactive). For the same compound, the GI50 [10] was 20.3 µM (inactive), the GI50 [11] was > 100 µM (inactive) and the GI50 [12] was > 100 µM (inactive). For the same compound, the GI50 [13] was 48.4 µM (inactive), the GI50 [14] was > 100 µM (inactive) and the GI50 [15] was > 100 µM (inactive). The GI50 [16] was > 100 µM (inactive), the GI50 [17] was > 100 µM (inactive) and the GI50 [18] was > 100 µM (inactive). For the same compound, the GI50 [19] was 54.1 µM (inactive), the GI50 [20] was 57.7 µM (inactive) and the GI50 [21] was > 100 µM (inactive). For the same compound, the GI50 [22] was 38.4 µM (inactive), the GI50 [23] was > 100 µM (inactive) and the GI50 [24] was 28.3 µM (inactive). For the same compound, the GI50 [25] was 34.2 µM (inactive), the GI50 [26] was > 100 µM (inactive) and the GI50 [27] was > 100 µM (inactive). The GI50 [28] was 89.7 µM (inactive), the GI50 [29] was > 100 µM (inactive) and the GI50 [30] was > 100 µM (inactive). For the same compound, the GI50 [31] was 69.3 µM (inactive), the GI50 [32] was > 100 µM (inactive) and the GI50 [33] was > 100 µM (inactive). For the same compound, the GI50 [34] was > 100 µM (inactive), the GI50 [35] was > 100 µM (inactive) and the GI50 [36] was > 100 µM (inactive). The GI50 [37] was 34.6 µM (inactive), the GI50 [39] was > 100 µM (inactive) and the GI50 [40] was > 100 µM (inactive). For the same compound, the GI50 [41] was > 100 µM (inactive), the GI50 [42] was 93.8 µM (inactive) and the GI50 [43] was 97.7 µM (inactive). For the same compound, the GI50 [44] was > 100 µM (inactive), the GI50 [45] was 62.8 µM (inactive) and the GI50 [46] was > 100 µM (inactive). For the same compound, the GI50 [47] was > 100 µM (inactive), the GI50 [48] was > 100 µM (inactive) and the GI50 [49] was > 100 µM (inactive). The GI50 [50] was 39.1 µM (inactive), the GI50 [51] was 83.9 µM (inactive) and the GI50 [52] was > 100 µM (inactive). The GI50 [53] was > 100 µM (inactive), the GI50 [54] was 52.4 µM (inactive) and the GI50 [55] was > 100 µM (inactive). The GI50 [56] was > 100 µM (inactive), the GI50 [57] was > 100 µM (inactive) and the GI50 [58] was > 100 µM (inactive).
